Assay results published in US12180187B2, “1-phenyl-5-azinylpyrazolyl-3-oxyalkyl acids and their use for controlling unwanted plant growth” (BAYER AKTIENGESELLSCHAFT, priority 2019, dated 2024).

What was measured:
POAAN [1] = experiment: Pre-emergence action against POAAN, 1280 g/ha; format: in vivo, Poa annua; settings: visual scoring after about 3 weeks vs untreated controls, 100% = plants have died, 0% = like control plants
Text: (§1) 1. Pre-Emergence Herbicidal Effect and Crop Plant Compatibility a) Seeds of mono- and dicotyledonous weed plants are placed in plastic pots in sandy loam soil (doubly sown with one species each of mono- or dicotyledonous weed plants per pot) and covered with soil. The compounds of the invention, formulated in the form of wettable powders (WP) or as emulsion concentrates (EC), are then applied onto the surface of the covering soil as aqueous suspension or emulsion with addition of 0.5% additive at a water application rate equivalent to 600 litres per hectare. After the treatment, the pots are placed in a greenhouse and kept under good growth conditions for the trial plants. After about 3 weeks, the effect of the preparations is scored visually in comparison with untreated controls as percentages. For example, 100% activity=the plants have died, 0% activity=like control plants. 1. Pre-Emergence Effectiveness Tables 1 to 12 below show the effects of selected compounds of the general formula (I) according to Tables 1 and 2 on various harmful plants and at an application rate corresponding to 1280 g/ha, which were obtained by the experimental procedure mentioned above.

ALOMY [2] = experiment: Pre-emergence action against ALOMY, 1280 g/ha; format: in vivo, Alopecurus myosuroides; settings: visual scoring after about 3 weeks vs untreated controls, 100% = plants have died, 0% = like control plants
Text: as §1

VERPE [3] = experiment: Pre-emergence action against VERPE, 1280 g/ha; format: in vivo, Veronica persica; settings: scored visually after about 3 weeks vs untreated controls (100% = plants have died)
Text: as §1

MATIN [4] = experiment: Pre-emergence action against MATIN, 1280 g/ha; format: in vivo, Tripleurospermum inodorum (Matricaria inodora); settings: scored visually after about 3 weeks vs untreated controls (100% = plants have died)
Text: as §1

DIGSA [5] = experiment: Pre-emergence action against DIGSA, 1280 g/ha; format: in vivo, Digitaria sanguinalis; settings: visual scoring after about 3 weeks vs untreated controls, 100% = plants have died, 0% = like control plants
Text: as §1

AMARE [6] = experiment: Post-emergence action against AMARE, 1.28 kg/ha; format: in vivo, Amaranthus retroflexus; settings: dosage 1280 g/ha, visual rating about 3 weeks after treatment vs untreated controls (100% = plants died)
Description: (§2) • a) Seeds of mono- and dicotyledonous weed plants are placed in plastic pots in sandy loam soil (twin sowing with one species each of mono- or dicotyledonous weed plants per pot), covered with soil and cultivated in a greenhouse under controlled growth conditions. 2 to 3 weeks after sowing, the test plants are treated at the one-leaf stage. The compounds of the invention, formulated in the form of wettable powders (WP) or as emulsion concentrates (EC), are applied to the green parts of the plants as aqueous suspension or emulsion with addition of 0.5% additive at a water application rate equivalent to 600 litres per hectare. After the test plants have been kept in the greenhouse under optimum growth conditions for about 3 weeks, the activity of the preparations is rated visually in comparison to untreated controls. For example, 100% activity=the plants have died, 0% activity=like control plants. As shown by the results, compounds of the general formula (I) of the invention, in post-emergence treatment, have very good herbicidal efficacy (90% to 100% herbicidal action) against harmful plants such as Abutilon theophrasti, Digitaria sanguinalis, Echinochloa crus-galli, Matricaria inodora, Poa annua, at an application rate of 1.28 kg of active substance per hectare.

SETVI = experiment: Pre-emergence action against SETVI, 1280 g/ha; format: in vivo, Setaria viridis; settings: visual scoring after about 3 weeks vs untreated controls, 100% = plants have died, 0% = like control plants
Text: as §1

LOLRI = experiment: Pre-emergence action against LOLRI, 1280 g/ha; format: in vivo, Lolium rigidum; settings: visual scoring after about 3 weeks vs untreated controls, 100% = plants have died, 0% = like control plants
Text: as §1

STEME = experiment: Pre-emergence action against STEME, 1280 g/ha; format: in vivo, Stellaria media; settings: scored visually after about 3 weeks vs untreated controls (100% = plants have died)
Text: as §1

AMARE [7] = experiment: Pre-emergence action against AMARE, 1280 g/ha; format: in vivo, Amaranthus retroflexus; settings: scored visually after about 3 weeks vs untreated controls (100% = plants have died)
Text: as §1

MATIN [8] = experiment: Post-emergence action against MATIN, 1.28 kg/ha; format: in vivo, Tripleurospermum inodorum (Matricaria inodora); settings: dosage 1280 g/ha, visual rating about 3 weeks after treatment vs untreated controls (100% = plants died)
Description: as §2

VERPE [9] = experiment: Post-emergence action against VERPE, 1.28 kg/ha; format: in vivo, Veronica persica; settings: dosage 1280 g/ha, visual rating about 3 weeks after treatment vs untreated controls (100% = plants died)
Description: as §2

ECHCG = experiment: Pre-emergence action against ECHCG, 1280 g/ha; format: in vivo, Echinochloa crus-galli; settings: visual scoring after about 3 weeks vs untreated controls, 100% = plants have died, 0% = like control plants
Text: as §1

ALOMY [10] = experiment: Post-emergence action against ALOMY, 1.28 kg/ha; format: in vivo, Alopecurus myosuroides; settings: dosage 1280 g/ha, visual rating about 3 weeks after treatment vs untreated controls
Description: as §2

POAAN [11] = experiment: Post-emergence action against POAAN, 1.28 kg/ha; format: in vivo, Poa annua; settings: dosage 1280 g/ha, visual rating about 3 weeks after treatment vs untreated controls
Description: as §2

DIGSA [12] = experiment: Post-emergence action against DIGSA, 1.28 kg/ha; format: in vivo, Digitaria sanguinalis; settings: dosage 1280 g/ha, visual rating about 3 weeks after treatment vs untreated controls
Description: as §2

Compound | Pre-emergence action against POAAN (POAAN [1]) | Pre-emergence action against VERPE (VERPE [3]) | Pre-emergence action against MATIN (MATIN [4]) | Pre-emergence action against DIGSA (DIGSA [5]) | Post-emergence action against AMARE (AMARE [6]) | Pre-emergence action against SETVI (SETVI) | Pre-emergence action against STEME (STEME) | Pre-emergence action against AMARE (AMARE [7]) | Post-emergence action against MATIN (MATIN [8]) | Post-emergence action against VERPE (VERPE [9]) | Post-emergence action against ALOMY (ALOMY [10]) | also measured
COC(=O)[C@@H](C)Oc1nn(-c2ccccc2F)c(-c2cnccn2)c1Br [Example I-001] | 100% | 100% | 90% | 90% | 90% | 90% | 100% | 100% | – | – | – | Pre-emergence action against ALOMY (ALOMY [2]): 90%; Pre-emergence action against LOLRI (LOLRI): 90%
O=C(COc1nn(-c2ccccc2F)c(-c2ccc(F)nc2)c1Br)N1CCSC1=O [Example X-011] | 100% | 100% | 90% | 100% | 90% | 100% | – | 100% | 100% | 90% | 90% | Pre-emergence action against ECHCG (ECHCG): 100%; Post-emergence action against POAAN (POAAN [11]): 100%
N#CCCNC(=O)COc1nn(-c2ccccc2F)c(-c2ccc(F)cn2)c1Br [II-005] | – | – | – | – | – | – | – | 90% | – | – | – | –
COC(=O)CNC(=O)COc1nn(-c2ccccc2F)c(-c2ccc(F)cn2)c1Br [II-013] | 100% | 100% | 90% | 100% | – | 100% | 100% | 90% | 90% | 90% | 90% | Pre-emergence action against ALOMY (ALOMY [2]): 90%; Pre-emergence action against LOLRI (LOLRI): 100%; Pre-emergence action against ECHCG (ECHCG): 90%; Post-emergence action against POAAN (POAAN [11]): 90%
O=C(COc1nn(-c2ccc(F)cc2F)c(-c2ccc(F)cn2)c1Br)NO [II-018] | – | – | – | – | 100% | – | – | – | 90% | – | – | –
CCOC(=O)COc1nn(-c2ccccc2F)c(-c2ccnnc2)c1C#N [IV-003, Ethyl {[4-cyano-1-(2-fluorophenyl)-5-(pyridazin-4-yl)-1H-pyrazol-3-yl]oxy}acetate] | – | – | – | – | 90% | – | – | – | – | – | 100% | pest or weed control at 1280 g/ha (POAAN [1]; Poa annua, 504 h): 90%; pest or weed control at 1280 g/ha (VERPE [9]; Veronica persica, 504 h): 90%; pest or weed control at 1280 g/ha (VERPE [3]; Veronica persica, 504 h): 100%; pest or weed control at 1280 g/ha (MATIN [4]; Tripleurospermum inodorum, 504 h): 90%; pest or weed control at 1280 g/ha (SETVI; Setaria viridis, 504 h): 100%; pest or weed control at 1280 g/ha (STEME; Stellaria media, 504 h): 100%; pest or weed control at 1280 g/ha (AMARE [7]; Amaranthus retroflexus, 504 h): 90%
COC(=O)[C@@H](C)Oc1nn(-c2ccccc2F)c(-c2cncnc2)c1Cl [VI-017] | 90% | 100% | 100% | – | 90% | – | 90% | 100% | – | – | – | Pre-emergence action against ALOMY (ALOMY [2]): 90%
COC(=O)C(C)Oc1nn(-c2ccccc2)c(-c2ccc(C)nc2)c1Cl (centres unmarked) [VII-013] | 100% | 100% | – | 90% | – | – | – | – | – | 100% | – | Post-emergence action against DIGSA (DIGSA [12]): 90%
COC(=O)C(C)Oc1nn(-c2ccccc2)c(-c2ccc(Cl)nc2)c1Cl (centres unmarked) [VII-017] | 90% | 100% | – | 90% | – | – | – | 90% | – | 100% | – | Post-emergence action against DIGSA (DIGSA [12]): 90%
CCOC(=O)COc1nn(-c2ccccc2F)c(-c2ccc(F)nc2)c1SC [VII-021] | 90% | – | – | – | – | – | – | 90% | – | – | – | –
COC(=O)COc1nn(-c2ccccc2F)c(-c2ccc(OC)nc2)c1Br [VII-022] | – | 90% | – | – | – | – | – | – | – | 90% | – | –
CSc1c(OCC(=O)O)nn(-c2ccccc2F)c1-c1ccc(F)nc1 [VII-056] | 90% | – | 90% | 100% | 100% | 90% | 90% | 90% | 100% | 90% | 100% | Pre-emergence action against LOLRI (LOLRI): 90%; Post-emergence action against DIGSA (DIGSA [12]): 90%; Post-emergence action against POAAN (POAAN [11]): 100%
CCOC(=O)COc1nn(-c2ccccc2F)c(-c2ccc(OCC)nc2)c1Br [VII-127] | – | – | – | – | – | – | 90% | – | – | – | – | –
CCOC(=O)COc1nn(-c2ccccc2F)c(-c2cnc(F)c(F)c2)c1Br [VII-148] | 100% | 90% | 90% | 100% | 100% | 90% | 90% | 100% | 100% | – | 100% | Pre-emergence action against LOLRI (LOLRI): 90%; Pre-emergence action against ECHCG (ECHCG): 90%; Post-emergence action against DIGSA (DIGSA [12]): 100%; Post-emergence action against POAAN (POAAN [11]): 100%
